# System: X181 H1N1 Cal, X187 H3N2 Perth and B/Brisbane
# Assay type: in vivo, Balb/c mice
# Conditions: adjuvant dose 100 μg, 20 μl
smiles,measurement,value
Cc1ccc2c(c1)nc(N)c1ncc(CCc3ccc(OCCOCCOCCC(F)(F)P(=O)(O)O)cc3C)cc12 [T1b],immune response compared to both intradermal or intramuscular immunization using antigen alone,significantly improved immune response

# From patent publication US9827190B2, “Intradermal delivery of immunological compositions comprising toll-like receptor 7 agonists” (GLAXOSMITHKLINE BIOLOGICALS SA, priority 2013, dated 2017)
